{"source": "patent US10974081B2", "about": "“Treatment and prevention of sleep disorders” (Purdue Pharma L.P., priority 2016, dated 2021)", "key": {"[1]": {"test": "In vivo clearance of radiolabeled Compound (1D), rats", "conditions": "within 48 hours of oral dosing"}, "[2]": {"test_system": "rats", "test": "In vivo functional observational battery (FOB)", "conditions": "for Behavior: 1 mg/kg"}, "[3]": {"test": "In vivo functional observational battery (FOB)", "conditions": "male, Crl:CD(SD), rat, in vivo, po"}, "[4]": {"test_system": "human liver microsomes", "test": "In vitro metabolic stability, human liver microsomes", "assay_type": "in vitro ADME", "conditions": "2 μM, % remaining after 30 minutes at 37° C.", "method": "The comparative in vitro metabolic stabilities of Compounds (1F), […], and W-212393 were determined upon exposure to human liver microsomes or rat liver microsomes according to a procedure disclosed in, e.g., Example 14 of U.S. Pat. No. 9,290,488, which is hereby incorporated by reference in its entirety. Liver microsomes from Crj;CD rats or humans were incubated with 2 μM of each tested compound; thereafter, the supernatant was analyzed by HPLC-MS for the concentration of the tested compound present. Human liver microsomes, pooled, 20 mg/mL, were obtained from […] #H0610). […] Alternatively and if desired, rat liver microsomes can be obtained commercially from, e.g., XenoTech (Sprague-Dawley rat liver microsomes, pooled, 20 mg/mL, cat #R1000). β-NADPH (β-nicotinamide adenine dinucleotide 2'-phosphate reduced tetrasodium salt hydrate) was obtained from Oriental Yeast Co., Ltd. (Tokyo, Japan). Each tested compound, present at an initial concentration of 2 μM, was incubated at 37° C. in the presence of 0.5 mg/mL of either human microsomes or rat microsomes in suspension in 50 mM Tris-HCl buffer (7.4 pH), 150 mM KCl, 10 mM MgCl2, and 1 mM β-NADPH. Incubation was initiated upon the addition of a 100-fold concentrated solution of the tested compound to one of the microsome preparations. Incubation was terminated by addition of a two-fold volume of a 1/1 mixture of acetonitrile/methanol after either 0 minutes or 30 minutes of incubation at 37° C. Thereafter, proteins and other macromolecules from the microsome preparation were removed by centrifugation. All incubations were conducted in duplicate. […] The HPLC system consisted of a Waters 2795 separations module (Waters Corp., Milford, Mass.) equipped with an inline degasser, temperature controlled auto-sampler, and column oven. The analytical column was a Waters […], 2.1 mm×20 mm column. The mass analyzer was a Waters ZQ, single quadrupole mass spectrometer equipped with an electrospray ionization source operating in the positive ionization mode and utilizing a stainless steel spray capillary. […]"}, "[5]": {"test_system": "rats", "conditions": "by suppression of rhythmic firing of SCN neurons; cited from earlier work"}, "[6]": {"test": "in vivo", "conditions": "male, Crl, CD(SD), rat, brain homogenate and plasma, iv, 0.5 mg/kg"}, "[7]": {"conditions": "3 mg/kg, 0.5 h after administration"}, "[8]": {"conditions": "3 mg/kg, 1 h after administration"}, "[9]": {"conditions": "3 mg/kg, 2 h after administration"}, "[10]": {"conditions": "3 mg/kg, 4 h after administration"}, "[11]": {"conditions": "3 mg/kg, 6 h after administration"}, "[12]": {"conditions": "300 mg/kg, 0.5 h after administration"}, "[13]": {"conditions": "300 mg/kg, 1 h after administration"}, "[14]": {"conditions": "300 mg/kg, 2 h after administration"}, "[15]": {"conditions": "300 mg/kg, 4 h after administration"}, "[16]": {"conditions": "300 mg/kg, 6 h after administration"}}}
{"smiles": "O=C(O)c1nc2ccccc2n([C@H]2C[C@H]3CCC[C@@H](C2)N3C2CC3CCCC(C3)C2)c1=O", "note": "(stereo partly shown) [Compound (1D)]", "values": [{"measurement": "Average % Elimination, Fecal", "setting": "[1]; Rat (female)", "value": 27.9, "unit": "%"}, {"measurement": "Average % Elimination, Fecal + Urinary", "setting": "[1]; Rat (female)", "value": 94.7, "unit": "%"}, {"measurement": "Average % Elimination, Urinary", "setting": "[1]; Rat (female)", "value": 66.8, "unit": "%"}, {"measurement": "Average % Elimination, Fecal", "setting": "[1]; Rat (male)", "value": 41.6, "unit": "%"}, {"measurement": "Average % Elimination, Fecal + Urinary", "setting": "[1]; Rat (male)", "value": 96.0, "unit": "%"}, {"measurement": "Average % Elimination, Urinary", "setting": "[1]; Rat (male)", "value": 54.4, "unit": "%"}]}
{"smiles": "CNC(=O)Cn1c(=O)n(C2CCN([C@@H]3Cc4cccc5cccc3c45)CC2)c2ccccc21", "note": "[Compound W-212393]", "values": [{"measurement": "Behavior", "setting": "[2]; 0.5 h after administration", "value": "N"}, {"measurement": "Behavior", "setting": "[2]; 1 h after administration", "value": "N"}, {"measurement": "Behavior", "setting": "[2]; 2 h after administration", "value": "N"}, {"measurement": "Behavior", "setting": "[2]; 4 h after administration", "value": "N"}, {"measurement": "Behavior", "setting": "[2]; 6 h after administration", "value": "N"}, {"measurement": "Biting behavior", "setting": "[2]; [7]", "value": "N"}, {"measurement": "Hvpoactivity", "setting": "[2]; [7]", "value": "N"}, {"measurement": "Jumping", "setting": "[2]; [7]", "value": "N"}, {"measurement": "Biting behavior", "setting": "[2]; [8]", "value": "1 of 6"}, {"measurement": "Hvpoactivity", "setting": "[2]; [8]", "value": "6 of 6"}, {"measurement": "Jumping", "setting": "[2]; [8]", "value": "3 of 6"}, {"measurement": "Biting behavior", "setting": "[2]; [9]", "value": "N"}, {"measurement": "Hvpoactivity", "setting": "[2]; [9]", "value": "N"}, {"measurement": "Jumping", "setting": "[2]; [9]", "value": "2 of 6"}, {"measurement": "Biting behavior", "setting": "[2]; [10]", "value": "N"}, {"measurement": "Hvpoactivity", "setting": "[2]; [10]", "value": "N"}, {"measurement": "Jumping", "setting": "[2]; [10]", "value": "N"}, {"measurement": "Biting behavior", "setting": "[2]; [11]", "value": "N"}, {"measurement": "Hvpoactivity", "setting": "[2]; [11]", "value": "N"}, {"measurement": "Jumping", "setting": "[2]; [11]", "value": "N"}, {"measurement": "Abdominal position/side lying position", "setting": "[2]; [12]", "value": "6 of 6"}, {"measurement": "Biting behavior", "setting": "[2]; [12]", "value": "3 of 6"}, {"measurement": "Decreased muscle tone", "setting": "[2]; [12]", "value": "6 of 6"}, {"measurement": "Jumping", "setting": "[2]; [12]", "value": "2 of 6"}, {"measurement": "Loss of auricular reflex/righting reflex", "setting": "[2]; [12]", "value": "6 of 6"}, {"measurement": "Loss of flexed or extension reflex", "setting": "[2]; [12]", "value": "6 of 6"}, {"measurement": "Loss of pain reaction", "setting": "[2]; [12]", "value": "6 of 6"}, {"measurement": "Respiratory irregularity", "setting": "[2]; [12]", "value": "6 of 6"}, {"measurement": "Abdominal position/side lying position", "setting": "[2]; [13]", "value": "6 of 6"}, {"measurement": "Biting behavior", "setting": "[2]; [13]", "value": "N"}, {"measurement": "Decreased muscle tone", "setting": "[2]; [13]", "value": "6 of 6"}, {"measurement": "Jumping", "setting": "[2]; [13]", "value": "N"}, {"measurement": "Loss of auricular reflex/righting reflex", "setting": "[2]; [13]", "value": "6 of 6"}, {"measurement": "Loss of flexed or extension reflex", "setting": "[2]; [13]", "value": "6 of 6"}, {"measurement": "Loss of pain reaction", "setting": "[2]; [13]", "value": "6 of 6"}, {"measurement": "Respiratory irregularity", "setting": "[2]; [13]", "value": "6 of 6"}, {"measurement": "Abdominal position/side lying position", "setting": "[2]; [14]", "value": "6 of 6"}, {"measurement": "Biting behavior", "setting": "[2]; [14]", "value": "N"}, {"measurement": "Decreased muscle tone", "setting": "[2]; [14]", "value": "6 of 6"}, {"measurement": "Jumping", "setting": "[2]; [14]", "value": "N"}, {"measurement": "Loss of auricular reflex/righting reflex", "setting": "[2]; [14]", "value": "6 of 6"}, {"measurement": "Loss of flexed or extension reflex", "setting": "[2]; [14]", "value": "6 of 6"}, {"measurement": "Loss of pain reaction", "setting": "[2]; [14]", "value": "6 of 6"}, {"measurement": "Respiratory irregularity", "setting": "[2]; [14]", "value": "6 of 6"}, {"measurement": "Abdominal position/side lying position", "setting": "[2]; [15]", "value": "6 of 6"}, {"measurement": "Biting behavior", "setting": "[2]; [15]", "value": "N"}, {"measurement": "Decreased muscle tone", "setting": "[2]; [15]", "value": "6 of 6"}, {"measurement": "Jumping", "setting": "[2]; [15]", "value": "N"}, {"measurement": "Loss of auricular reflex/righting reflex", "setting": "[2]; [15]", "value": "6 of 6"}, {"measurement": "Loss of flexed or extension reflex", "setting": "[2]; [15]", "value": "6 of 6"}, {"measurement": "Loss of pain reaction", "setting": "[2]; [15]", "value": "6 of 6"}, {"measurement": "Respiratory irregularity", "setting": "[2]; [15]", "value": "6 of 6"}, {"measurement": "Abdominal position/side lying position", "setting": "[2]; [16]", "value": "6 of 6"}, {"measurement": "Biting behavior", "setting": "[2]; [16]", "value": "N"}, {"measurement": "Decreased muscle tone", "setting": "[2]; [16]", "value": "6 of 6"}, {"measurement": "Jumping", "setting": "[2]; [16]", "value": "N"}, {"measurement": "Loss of auricular reflex/righting reflex", "setting": "[2]; [16]", "value": "6 of 6"}, {"measurement": "Loss of flexed or extension reflex", "setting": "[2]; [16]", "value": "6 of 6"}, {"measurement": "Loss of pain reaction", "setting": "[2]; [16]", "value": "6 of 6"}, {"measurement": "Respiratory irregularity", "setting": "[2]; [16]", "value": "6 of 6"}, {"measurement": "NOAEL", "setting": "[3]", "value": 1, "unit": "mg/kg"}, {"measurement": "Human Metabolic Stability (%)", "setting": "[4]", "value": 27.3, "unit": "%"}, {"measurement": "effect on circadian body temperature rhythm", "setting": "[5]", "value": "induced a phase advance"}, {"measurement": "Kp at 0.5 h", "setting": "[6]", "value": 0.5}]}
